Reference: article PMC4157868, “Real-Time Analysis of Imatinib- and Dasatinib-Induced Effects on Chronic Myelogenous Leukemia Cell Interaction with Fibronectin” (PLoS ONE, 2014)

How the values were obtained:
[1] = test system: JURL-MK1 cells on fibronectin; settings: cited from earlier work
[2] = test system: JURL-MK1 cells on fibronectin; experiment: kinetics of JURL-MK1 cell adhesivity to fibronectin (adherent cell fraction); assay type: cell-based, human
Text: Supplementary file pone.0107367.s001.pdf: Figure S1 Kinetics of dasatinib-induced cell death and changes in cell adhesivity to fibronectin. […] Cell fraction in sub-G1 region of cell cycle phase distribution in samples stained with propidium iodide. […] (PDF) Click here for additional data file.

[3] = test system: JURL-MK1 and MOLM-7 cells on fibronectin; experiment: real-time microimpedance, cell interaction with fibronectin, BCR-ABL-positive cells; assay type: cell-based, human; settings: dasatinib 100 nM, clinically relevant dose
Protocol: RTCA xCELLigence DP system (Acea Biosciences, San Diego, CA, U.S.A.) was placed in an incubator (at 37°C) with 5% CO2 content. […] The microimpedance signal (cell index) was set to zero in these conditions. […] DMSO (0.1%) was also added to control wells.
Cells were seeded into E-plates and incubated for 1–2 h to allow for cell attachment to the coated cell bottom. After signal stabilization, the drug was added in a small drop while the corresponding solvent was added to control wells as any mechanical perturbation usually produced minor changes, too.
The cells (6×10^4 per well) were seeded into fibronectin-coated E-plates. After the microimpedance signal stabilization, the appropriate inhibitor was added in triplets. […] Microimpedance signal (cell index) was normalized to 1 at the time of inhibitor addition.

[4] = test system: HEL and JURKAT cells on fibronectin; experiment: real-time microimpedance, cell interaction with fibronectin, BCR-ABL-negative cells; assay type: cell-based, human; settings: low-dose (several nM) dasatinib
Text: (§1) (PPTX) Click here for additional data file.
as §1

[5] = test system: active SFKs in MOLM-7 cells; experiment: immunofluorescence of phospho-SFK in adhesion sites; assay type: cell-based, human; settings: MOLM-7 on fibronectin
Protocol: The cells were plated on fibronectin coated coverslips or glass bottom dishes, incubated for 60 minutes in CO2 incubator, fixed with 2% paraformaldehyde, permeabilized in 0.3% Triton/PBS and incubated with anti-phospho-SRC family primary antibody and a secondary antibody (Alexa Fluor 488 Goat Anti-Rabbit). F-actin was labeled with rhodamine phalloidin (Molecular Probes). Samples were analyzed using an Olympus Fluoview FV1000 confocal laser scanning microscope.
To support our hypothesis that SFKs may be involved in regulation of cell interaction with fibronectin, we studied the intracellular localization of active SFKs using the phospho-specific anti-SFK antibody. […] In JURL-MK1 cells, the active SFKs were found mainly in the contours of cell-surface contact areas and their localization to the sites of the closest contact was less evident due to different morphology (Figure 8B). […] As the main SFKs in JURL-MK1 and MOLM-7 were LYN and LYN+LCK, respectively, we also analyzed the intracellular localization of these individual kinases.
(PDF) Click here for additional data file.

[6] = test system: JURL-MK1 and MOLM-7 cells; experiment: apoptosis onset: caspase activation (Ac-DEVD-AFC), Annexin V staining; assay type: cell-based, human
[7] = test system: JURL-MK1 and MOLM-7 cells on fibronectin; experiment: end-point adherent cell fraction on fibronectin-coated wells
Protocol: Briefly, the cells (1×10^4) were seeded into fibronectin-coated wells on a microtitration plate and incubated for 1 h at 37°C. Then, the cells were washed wih PBS/Ca^2+/Mg^2+ and the remaining cells were quantified by means of fluorescent labelling (CyQuant Cell Proliferation Assay Kit; Molecular Probes). The adherent cell fraction (ACF) was calculated using the fluorescence signal from fibronectin-coated plate and the signal obtained from a reference plate that contained the total cell number.

Cc1ccc(NC(=O)c2ccc(CN3CCN(C)CC3)cc2)cc1Nc1nccc(-c2cccnc2)n1 [imatinib]
cell fraction adhering to FN ([1]; imatinib, first several hours of treatment, JURL-MK1): the cell fraction adhering to FN increased

CC(C)[C@H](NC(=O)c1ccc2ccccc2n1)C(=O)N[C@@H](CC(=O)O)C(=O)COc1c(F)cccc1F [Q-VD-OPh]
effect on the dasatinib-induced decrease of cell adhesivity to fibronectin ([2]; 10 µM Q-VD-OPh added together with 2 nM dasatinib, 24 h): This decrease was prevented

Cc1nc(Nc2ncc(C(=O)Nc3c(C)cccc3Cl)s2)cc(N2CCN(CCO)CC2)n1 [dasatinib]
effect on CML cell binding to fibronectin [3]: almost no effect
change of cell binding to fibronectin [4]: no significant change
phospho-SFK fluorescent signal at adhesion sites ([5]; 100 nM dasatinib, 30 min): complete disappearance of the green fluorescent signal from adhesion sites
number of early apoptotic cells, Annexin V staining ([6]; 10 nM dasatinib, 6 h, JURL-MK1 and MOLM-7): no significant increase in the number of early apoptotic cells
time of treatment at which caspases became activated ([6]; dasatinib 10 nM): about 6 h
cell adhesivity to fibronectin after 24 h treatment ([2]; dasatinib 2 nM): cell adhesivity to fibronectin lowered
change in number of cells attached to fibronectin ([7]; dasatinib 1 to 10 nM, JURL-MK1 and MOLM-7): mild increase in the number of attached cells
change in CML cell binding to fibronectin ([7]; dasatinib at therapeutic concentrations (100 nM)): does not enhance CML cell binding to fibronectin

CC(C)(C)n1nc(-c2ccc(Cl)cc2)c2c(N)ncnc21 [PP2]
phospho-SFK fluorescent signal at adhesion sites ([5]; 10 µM PP2, 30 min): The same effect was also reached
effect on JURL-MK1 cell adhesivity to FN ([1]; PP2, recently reported by the authors): increases JURL-MK1 cell adhesivity to FN
